# Assay results from US12331121B2, “Efflux pump-cancer antigen multi-specific antibodies and compositions, reagents, kits and methods related thereto” (William Robert Arathoon Living Trust Dated August 29, 2016, priority 2019, dated 2025).
# Tested on: multidrug resistant N6ADR cells
# Assay: N6ADR tumor volume in mice (Example 2, FIG. 9)
# Type: in vivo
# Details: antibody on day 0, 4, 7, 11; no chemotherapeutic agent
# Description: N6ADR cells were injected into a cohort of 6 mice per test group prior to administration of the indicated antibodies. The antibodies were administered once palpable tumors reached a size of about 100-150 mm^3 (about 7 days after injection of tumor cells). Antibodies were administered on day 0, day 4, day 7, and day 11. Tumor volumes were measured and are plotted. Panel A: 15D3/MRK16 monoclonal anti-MDR1 antibody. Panel B: KT14/MRK16 monoclonal anti-CD47 antibody. Panel C: Co-administration of 15D3/MRK16 monoclonal anti-MDR1 antibody and KT14/MRK16 monoclonal anti-CD47 antibody. Panel D: KbisP1.1 antibody.
# The indicated antibodies were administered with or without the chemotherapeutic agent paclitaxel. Antibody was dosed about 1-4 hrs prior to Paclitaxel.
substance,measurement,value
"KBisP1.1: bispecific anti-MDR1/anti-CD47 antibody: 15D3 heavy chain, 5F9 (KT14) heavy chain, common MRK16 light chain, human IgG1",effect on tumor volume without paclitaxel,more efficacious than the co-administration
